Consider nine compounds from ChEMBL document CHEMBL4052800, “Syntheses of cytotoxic novel arctigenin derivatives bearing halogen and alkyl groups on aromatic rings” (Bioorg Med Chem Lett, 2017).

Bounds are passed on as bounds.

One assay deals with HeLa. Kind of assay: Cytotoxicity against human HeLa cells assessed as reduction in cell viability after 48 hrs by WST-8 assay. In kind it is functional, cell-based.
Conditions: not given
A general note: Tetrazolium dyes change colour on reduction, which living cells bring about.
The EC50 is the concentration needed to bring the measured effect to its halfway point. As for `O=C1OC[C@H](Cc2ccccc2)[C@H]1Cc1cc(Cl)cc(Cl)c1`, the EC50 was 17 µM.

As for `CCCCOc1ccccc1C[C@H]1COC(=O)[C@@H]1Cc1ccc(Cl)c(Cl)c1`, the EC50 was over 100 µM.

In the case of `O=C1OC[C@H](Cc2cccc(F)c2)[C@H]1Cc1ccc(Cl)c(Cl)c1`, the EC50 came to 20 µM.

In another assay the test system is HL-60. Briefly: Cytotoxicity against human HL60 cells assessed as reduction in cell viability after 48 hrs by WST-8 assay. Particulars: HL-60, 48 h. In kind it is functional, cell-based.
In the case of `CCCCOc1ccc(C[C@H]2C(=O)OC[C@@H]2Cc2ccccc2)cc1OCCCC`, the EC50 is over 100 µM.

Take `O=C1OC[C@H](Cc2ccccc2)[C@H]1Cc1cccc(O)c1`: the EC50 was over 100 µM.

`CCCCOc1ccc(/C=C2/C(=O)OC[C@@H]2Cc2ccccc2)cc1`: the EC50 was over 100 µM.

Turning to `COc1cc(C[C@H]2C(=O)OC[C@@H]2Cc2ccccc2)cc(OC)c1OC`, the EC50 was over 100 µM.

On to `O=C1OC[C@H](Cc2ccccc2)[C@H]1Cc1cc(Cl)cc(Cl)c1`, for which the EC50 is 23 µM.

Turning to `CCCCCCCOc1ccc(C[C@H]2C(=O)OC[C@@H]2Cc2ccccc2)cc1`, the EC50 was over 100 µM.

On to `COc1ccc(C[C@H]2C(=O)OC[C@@H]2Cc2ccccc2)cc1OC`, for which the EC50 is over 100 µM.

`CCCCOc1ccccc1C[C@H]1COC(=O)[C@@H]1Cc1ccc(Cl)c(Cl)c1`: the EC50 came to 10 µM.

In the case of `O=C1OC[C@H](Cc2cccc(F)c2)[C@H]1Cc1ccc(Cl)c(Cl)c1`, the EC50 amounted to 14 µM.

The test system of the next assay is HL-60. Briefly: Cytotoxicity against human HL60 cells assessed as reduction in cell viability after 48 hrs by WST-8 assay relative to control. In kind it is functional.
Conditions: not given
In the case of `CCCCOc1ccc(C[C@H]2C(=O)OC[C@@H]2Cc2ccccc2)cc1OCCCC`, the “inhibition (INH)” value worked out at 29%.

In the case of `O=C1OC[C@H](Cc2ccccc2)[C@H]1Cc1cccc(O)c1`, the “inhibition (INH)” value is on record as 45%.

Turning to `CCCCOc1ccc(/C=C2/C(=O)OC[C@@H]2Cc2ccccc2)cc1`, the “inhibition (INH)” value is listed as 36%.

Turning to `COc1cc(C[C@H]2C(=O)OC[C@@H]2Cc2ccccc2)cc(OC)c1OC`, the “inhibition (INH)” value was 44%.

As for `CCCCCCCOc1ccc(C[C@H]2C(=O)OC[C@@H]2Cc2ccccc2)cc1`, the “inhibition (INH)” value is listed as 17%.

Consider `COc1ccc(C[C@H]2C(=O)OC[C@@H]2Cc2ccccc2)cc1OC`, for which the “inhibition (INH)” value is on record as 38%.
